Test results reported in US8754079B2, “Cycloalkyl containing thienopyrimidines for pharmaceutical compositions” (Boehringer Ingelheim International GmbH, priority 2010, dated 2014).

Legend:
[1] = system: Mnk2 (Mnk2a or Mnk2b) or Mnk1; conditions: addition to cell culture cells transfected with Mnk2 (Mnk2a or Mnk2b) or Mnk1; cited from earlier work
MNK2 = biological target: T1, MNK2 (Homo sapiens, UniProt Q9HBH9); test: Mnk2a in vitro kinase assay (indirect fluorescence polarization); type: biochemical; conditions: pre-activated GST-Mnk2a 2.5 nM, 20 μM ATP, 30 μM substrate peptide
T1 construct: the open reading frames of human Mnk1 and Mnk2a were amplified from cDNA; made in house; host or cells: E. coli BL21
How it was run: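 Human GST-Mnk2a was expressed in E. coli and activated in vitro with 150 nM pre-activated ERK2 and 50 μM ATP in HEPES pH 7.4/MgCl2 buffer (45 min, 30 °C). Activity on an eIF4E Ser209-derived 12mer peptide was read by competitive fluorescence polarization with a phospho-specific antibody.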

T1 sequence (Q9HBH9 whole entry): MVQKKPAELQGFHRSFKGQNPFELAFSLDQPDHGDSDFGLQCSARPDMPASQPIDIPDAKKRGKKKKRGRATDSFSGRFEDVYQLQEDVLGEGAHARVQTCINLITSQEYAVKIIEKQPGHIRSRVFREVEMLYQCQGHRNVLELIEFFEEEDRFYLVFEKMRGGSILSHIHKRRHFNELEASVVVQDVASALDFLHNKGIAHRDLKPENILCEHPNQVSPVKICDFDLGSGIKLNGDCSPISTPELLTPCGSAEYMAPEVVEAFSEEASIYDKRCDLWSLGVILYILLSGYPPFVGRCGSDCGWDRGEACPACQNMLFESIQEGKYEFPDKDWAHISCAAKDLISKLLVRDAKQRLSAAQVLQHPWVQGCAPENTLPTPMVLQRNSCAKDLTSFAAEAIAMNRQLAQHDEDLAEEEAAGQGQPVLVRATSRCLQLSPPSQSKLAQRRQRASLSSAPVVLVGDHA

SMILES	reduction of phosphorylated eIF4E [1]	IC50 (MNK2) [nM]
Nc1ncnc2n[nH]c(Nc3ccc(F)cc3)c12 [CGP57380]	strong reduction	
CO[C@H]1CC[C@H](Oc2ncccc2Nc2ncnc3sc(C(N)=O)c(C)c23)CC1 [Example 207, 4-[2-(trans-4-Methoxy-cyclohexyloxy)-pyridin-3-ylamino]-5-methyl-thieno[2,3-d]pyrimidine-6-carboxylic acid amide]		9
CO[C@H]1CC[C@H](Oc2cc(F)ccc2Nc2ncnc3sc(C(=O)NCc4cnco4)c(C)c23)CC1 [Example 185]		17
Cc1c(C(N)=O)sc2ncnc(Nc3cccnc3O[C@H]3CC[C@@H](O)CC3)c12 [Example 205, 4-[2-(cis-4-Hydroxy-cyclohexyloxy)-pyridin-3-ylamino]-5-methyl-thieno[2,3-d]pyrimidine-6-carboxylic acid amide]		10
CC(=O)N[C@H]1CC[C@H](Oc2cc(F)ccc2Nc2ncnc3sc(C(=O)NCC#CCN(C)C)c(C)c23)C1 [Example 233]		19
Cc1c(C(=O)NCCCCO)sc2ncnc(Nc3ccc(F)cc3O[C@@H]3CCC[C@@H](O)C3)c12 (racemic) [Example 61]		26
CCN(CC)CCCNC(=O)c1sc2ncnc(Nc3ccc(F)cc3O[C@H]3CC[C@H](OC)CC3)c2c1C [Example 276]		12
CC(=O)N[C@H]1CCC[C@@H]1Oc1cc(F)ccc1Nc1ncnc2sc(C(N)=O)c(C)c12 [Example 295, (1S,2S) 4-{2-[2-(Acetyl-amino)-cyclopentyloxy]-4-fluoro-phenylamino}-5-methyl thieno[2,3-d]pyrimidine-6-carboxylic acid amide]		95
Cc1c(C(=O)NCCCN(C)C)sc2ncnc(Nc3ccc(F)cc3O[C@H]3CC[C@@H](O)CC3)c12 [Example 151, 4-[4-Fluoro-2-(cis-4-hydroxy-cyclohexyloxy)-phenylamino]-5-methyl-thieno[2,3-d]pyrimidine-6-carboxylic acid (3-dimethylamino-propyl)-amide]		36
CO[C@@H]1CCC[C@@H](Oc2ncccc2Nc2ncnc3sc(C(=O)NCCCCO)c(C)c23)C1 (racemic) [Example 134]		86
Cc1c(C(=O)NCCCN2CCCC2)sc2ncnc(Nc3ccc(F)cc3OC3CCCCC3O)c12 (stereo not drawn) [Example 263]		175
CO[C@@H]1CCC[C@@H](Oc2cc(F)ccc2Nc2ncnc3sc(C(=O)NCCCN(C)C)c(C)c23)C1 (racemic) [Example 88]		61
CCNC(=O)c1sc2ncnc(Nc3ccc(F)cc3O[C@H]3C[C@H](NC(C)=O)C3)c2c1C [Example 37]		69
CO[C@H]1CC[C@@H](Oc2cc(F)ccc2Nc2ncnc3sc(C(=O)NCCCN(C)C)c(C)c23)CC1 [Example 202, 4-[4-Fluoro-2-(cis-4-methoxy-cyclohexyloxy)-phenylamino]-5-methyl-thieno[2,3-d]pyrimidine-6-carboxylic acid (3-dimethylamino-propyl)-amide]		46
CC(=O)N[C@H]1C[C@H](Oc2cc(F)ccc2Nc2ncnc3sc(C(=O)NCC#N)c(C)c23)C1 [Example 241, 4-[2-(trans-3-Acetylamino-cyclobutoxy)-4-fluoro-phenylamino]-5-methyl-thieno[2,3-d]pyrimidine-6-carboxylic acid cyanomethyl-amide]		49
COC(=O)c1sc2ncnc(Nc3cccnc3O[C@H]3CC[C@H](N)CC3)c2c1C [Example 281, 4-[2-(4-Amino-cyclohexyloxy)-pyridin-3-ylamino]-5-methyl-thieno[2,3-d]pyrimidine-6-carboxylic acid methyl ester]		66
COC1CCCC(Oc2cc(F)ccc2Nc2ncnc3sc(C(=O)NCCCN(C)C)c(C)c23)C1 (stereo not drawn) [Example 108]		19

SMILES	reduction of phosphorylated eIF4E [1]	IC50 (MNK2) [nM]
CO[C@@H]1CCCC[C@H]1Oc1cc(F)ccc1Nc1ncnc2sc(C(=O)N[C@@H]3CCC[C@H]3O)c(C)c12 [Example 251]		20
COC1CCCC(Oc2ncccc2Nc2ncnc3sc(C(=O)NCC#N)c(C)c23)C1 (stereo not drawn) [Example 115]		19
COC(=O)c1sc2ncnc(Nc3ccc(F)cc3OC3C[C@@H](O)C[C@H](O)C3)c2c1C (relative stereo) [Example 30.1]		9
CO[C@@H]1CCC[C@@H](Oc2ncccc2Nc2ncnc3sc(C(=O)NCCCO)c(C)c23)C1 (racemic) [Example 147]		83
Cc1c(C(=O)NC2CCN(C)CC2)sc2ncnc(Nc3cccnc3O[C@H]3CC[C@H](O)CC3)c12 [Example 269]		24
Cc1c(C(=O)NCCCn2ccnc2)sc2ncnc(Nc3ccc(F)cc3O[C@H]3CC[C@H](O)CC3)c12 [Example 156]		13
Cc1c(C(N)=O)sc2ncnc(Nc3ccc(F)cc3O[C@H]3CC[C@H](NC4CCN(C)CC4)CC3)c12 [Example 16, 4-(4-Fluoro-2-(trans-4-(1-methylpiperidin-4-ylamino)cyclohexyloxy)phenylamino)-5-methylthieno[2,3-d]pyrimidine-6-carboxamide]		13
CO[C@H]1CCC[C@@H](Oc2ncccc2Nc2ncnc3sc(C(=O)NCCCN4CCCC4)c(C)c23)C1 (racemic) [Example 127]		16
CO[C@H]1CC[C@H](Oc2cc(F)ccc2Nc2ncnc3sc(C(=O)NCCN4CCCCC4)c(C)c23)CC1 [Example 190]		30
CO[C@H]1CCC[C@@H](Oc2ncccc2Nc2ncnc3sc(C(=O)NCCO)c(C)c23)C1 (racemic) [Example 122]		18
CO[C@H]1CC[C@H](Oc2cc(F)ccc2Nc2ncnc3sc(C(=O)NCC4COCCN4)c(C)c23)CC1 (stereo partly drawn) [Example 179]		30
COC1CCCC(Oc2ncccc2Nc2ncnc3sc(C(=O)NC4CCN(C)CC4)c(C)c23)C1 (stereo not drawn) [Example 123]		26
CO[C@H]1CCC[C@@H](Oc2ncccc2Nc2ncnc3sc(C(=O)NCC4COCCN4)c(C)c23)C1 (relative stereo) [Example 120]		33
COC(=O)c1sc2ncnc(Nc3ccc(F)cc3OC3CCC(=O)CC3)c2c1C [Example 20, Methyl 4-(4-fluoro-2-(4-oxocyclohexyloxy)phenylamino)-5-methylthieno[2,3-d]pyrimidine-6-carboxylate]		360
COC(=O)c1sc2ncnc(Nc3ccc(F)cc3O[C@@H]3CCCC[C@H]3OC)c2c1C [Example 247, 4-[4-Fluoro-2-((1R,2R)-2-methoxy-cyclohexyloxy)-phenylamino]-5-methyl-thieno[2,3-d]pyrimidine-6-carboxylic acid methyl ester]		139
Cc1c(C(N)=O)sc2ncnc(Nc3ccc(F)cc3O[C@@H]3CCC[C@@H](O)[C@H]3O)c12 (relative stereo) [Example 2]		21
